Measured values taken from the supplement of paper PMC11451515.

Tested on: SEM cells
Assay: cell viability relative to DMSO control; higher = less cytotoxic
Details: 48 h
Procedure, shortened: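 Viability was expressed as a per-plate percentage of DMSO wells, with cell-free wells as background. Leukemia cells (NOMO1 or SEM at 500 cells/well, P12-Ichikawa at 1000 cells/well) were adapted for at least four passages in each medium and seeded in 1536-well plates (5 μl). Library compounds in DMSO were pin-dosed over an 11-point threefold series from 47 μM to 0.79 nM, and CellTiter-Glo One luminescence was read after 48 h at 37°C.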

[1] = HPLM + 10% dialyzed FBS, 0.000781 µM
[2] = HPLM + 10% dialyzed FBS, 0.00234 µM
[3] = HPLM + 10% dialyzed FBS, 0.00702 µM
[4] = HPLM + 10% dialyzed FBS, 0.0211 µM
[5] = HPLM + 10% dialyzed FBS, 0.0632 µM
[6] = HPLM + 10% dialyzed FBS, 0.19 µM
[7] = HPLM + 10% dialyzed FBS, 0.569 µM
[8] = HPLM + 10% dialyzed FBS, 1.71 µM
[9] = HPLM + 10% dialyzed FBS, 5.12 µM
[10] = HPLM + 10% dialyzed FBS, 15.4 µM
[11] = HPLM + 10% dialyzed FBS, 46.1 µM
[12] = RPMI 5 mM glucose + 10% dialyzed FBS, 0.000781 µM
[13] = RPMI 5 mM glucose + 10% dialyzed FBS, 0.00234 µM
[14] = RPMI 5 mM glucose + 10% dialyzed FBS, 0.00702 µM
[15] = RPMI 5 mM glucose + 10% dialyzed FBS, 0.0211 µM
[16] = RPMI 5 mM glucose + 10% dialyzed FBS, 0.0632 µM
[17] = RPMI 5 mM glucose + 10% dialyzed FBS, 0.19 µM
[18] = RPMI 5 mM glucose + 10% dialyzed FBS, 0.569 µM
[19] = RPMI 5 mM glucose + 10% dialyzed FBS, 1.71 µM
[20] = RPMI 5 mM glucose + 10% dialyzed FBS, 5.12 µM
[21] = RPMI 5 mM glucose + 10% dialyzed FBS, 15.4 µM
[22] = RPMI 5 mM glucose + 10% dialyzed FBS, 46.1 µM
[23] = RPMI 5 mM glucose + 10% FBS, 0.000781 µM
[24] = RPMI 5 mM glucose + 10% FBS, 0.00234 µM
[25] = RPMI 5 mM glucose + 10% FBS, 0.00702 µM
[26] = RPMI 5 mM glucose + 10% FBS, 0.0211 µM
[27] = RPMI 5 mM glucose + 10% FBS, 0.0632 µM
[28] = RPMI 5 mM glucose + 10% FBS, 0.19 µM
[29] = RPMI 5 mM glucose + 10% FBS, 0.569 µM
[30] = RPMI 5 mM glucose + 10% FBS, 1.71 µM
[31] = RPMI 5 mM glucose + 10% FBS, 5.12 µM
[32] = RPMI 5 mM glucose + 10% FBS, 15.4 µM
[33] = RPMI 5 mM glucose + 10% FBS, 46.1 µM

Structure (SMILES) | cell viability [1] [%] | cell viability [2] [%] | cell viability [3] [%] | cell viability [4] [%] | cell viability [5] [%] | cell viability [6] [%] | cell viability [7] [%] | cell viability [8] [%] | cell viability [9] [%] | cell viability [10] [%] | cell viability [11] [%] | cell viability [12] [%] | cell viability [13] [%] | cell viability [14] [%] | cell viability [15] [%] | cell viability [16] [%] | cell viability [17] [%] | cell viability [18] [%] | cell viability [19] [%] | cell viability [20] [%] | cell viability [21] [%] | cell viability [22] [%] | cell viability [23] [%] | cell viability [24] [%] | cell viability [25] [%] | cell viability [26] [%] | cell viability [27] [%] | cell viability [28] [%] | cell viability [29] [%] | cell viability [30] [%] | cell viability [31] [%] | cell viability [32] [%] | cell viability [33] [%]
Cc1cc2c(C(C)C)c(O)c(O)c(C=O)c2c(O)c1-c1c(C)cc2c(C(C)C)c(O)c(O)c(C=O)c2c1O | 107 | 114 | 105 | 113 | 112 | 101 | 116 | 101 | 99.2 | 110 | 27.6 | 106 | 123 | 120 | 109 | 112 | 113 | 117 | 103 | 106 | 90 | 6.54 |  |  |  |  |  |  |  |  |  |  | 
CN1CCCN(C(=O)c2cccc(-c3ccc(/C=C4/C(=O)Nc5ccc(Cl)cc54)o3)c2)CC1 | 98.9 | 106 | 109 | 101 | 118 | 107 | 84.1 | 71.7 | 48.4 | 22.8 | 2.97 | 110 | 108 | 115 | 106 | 114 | 115 | 75.7 | 62.9 | 20.4 | 5.5 | 3.68 | 90.2 | 117 | 106 | 119 | 127 | 112 | 77.2 | 48 | 16.7 | 5.69 | 3.36
CC[C@H]1OC(=O)[C@H](C)[C@@H](O[C@H]2C[C@@](C)(OC)[C@@H](O)[C@H](C)O2)[C@H](C)[C@@H](O[C@@H]2O[C@@H](C)C[C@H](N(C)C)[C@H]2O)[C@](C)(O)C[C@@H](C)C(=O)[C@H](C)[C@@H](O)[C@]1(C)O | 79.6 | 80.8 | 87.8 | 95.4 | 80.6 | 85.6 | 105 | 81.4 | 89.8 | 82.3 | 32.2 | 79.5 | 84.9 | 84.7 | 96.9 | 89.4 | 94.5 | 92.2 | 86.8 | 80.6 | 80.7 | 24.5 | 83 | 94.3 | 101 | 102 | 90 | 105 | 106 | 106 | 94.8 | 35 | 18.7
O=C(NC1CCNCC1)c1n[nH]cc1NC(=O)c1c(Cl)cccc1Cl | 93 | 95.9 | 103 | 127 | 118 | 119 | 98.8 | 16.4 | 7.23 | 5.22 | 3.82 | 108 | 97.6 | 126 | 115 | 118 | 121 | 129 | 24.6 | 7.87 | 5.31 | 3.76 |  |  |  |  |  |  |  |  |  |  | 
Cl.c1cnc2cc3c(cc2n1)C1CNCC3C1 | 98.5 | 102 | 104 | 104 | 118 | 113 | 114 | 122 | 108 | 113 | 119 | 101 | 93.4 | 111 | 121 | 122 | 126 | 115 | 135 | 113 | 111 | 103 | 98.7 | 94.4 | 91.3 | 105 | 111 | 117 | 111 | 105 | 97.7 | 110 | 120
FC(F)(F)c1ccc(Nc2nc3cc(Oc4ccnc(-c5ncc(C(F)(F)F)[nH]5)c4)ccc3[nH]2)cc1 | 108 | 97.7 | 112 | 116 | 121 | 117 | 118 | 121 | 106 | 82.7 | 18.4 |  |  |  |  |  |  |  |  |  |  |  | 120 | 114 | 117 | 113 | 125 | 117 | 100 | 120 | 114 | 80.8 | 4.03
O=C(O)[C@H](Cc1c[nH]c2ccccc12)N1C(=O)c2ccccc2C1=O | 85.2 | 63.5 | 96.4 | 92.4 | 99.3 | 102 | 91.7 | 97.8 | 105 | 99.4 | 83.8 | 89.8 | 41.9 | 96.4 | 94.8 | 83.8 | 87.4 | 99.3 | 84.7 | 97.1 | 81.9 | 68 | 99.1 | 52.9 | 105 | 112 | 100 | 108 | 90.7 | 93.3 | 92 | 84.8 | 77.4
COc1cc(N2CCC(O)CC2)ccc1Nc1cc(Nc2ccccc2[S+](=O)([O-])C(C)C)c2cc[nH]c2n1 | 87.5 | 71.5 | 79.4 | 79.2 | 81.4 | 58.7 | 34.3 | 83.4 | 44 | 17.7 | 22.2 | 93.2 | 94.6 | 82.4 | 96.8 | 86.3 | 60.7 | 27.6 | 81.1 | 53.9 | 21.1 | 18.3 |  |  |  |  |  |  |  |  |  |  | 
